“And” between values parts separate entries of the source, which are not always exact repeats. Equal values may be shown once. Read-outs that look alike come from different tables or passages of the source. Ends that are not written are not given here. * marks the point of attachment. Myristoyl = CCCCCCCCCCCCCC(=O)*
Key:
[1] = system: T. brucei PKA holoenzyme (Ty1-PKAC1); type: biochemical, Trypanosoma brucei; conditions: for effect on basal kinase activity of immunoprecipitated holoenzyme, in words / in vitro kinase assay [CPM], average / in vitro kinase assay [CPM]: 1 mM; for in vitro kinase assay [CPM], PKI: 1 mM + 5 µM PKI(5-24); for in vitro kinase assay [CPM], PKI / in vitro kinase assay [CPM], average / in vitro kinase assay [CPM]: Supp Fig 3c; for in vitro kinase assay [CPM], average: average of 3; for in vitro kinase assay [CPM]: independent replicates
T. brucei PKA = T. brucei PKA (Trypanosoma brucei brucei, UniProt Q9GU80); experiment: In vivo PKA reporter assay (VASP Ser-157 phosphorylation, western blot); type: cell-based; conditions: for effect on in vivo PKA activity (VASP phosphorylation), in words: wild type background; for % VASP phosphorylation: independent replicates;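 on % VASP phosphorylation: Phosphorylated VASP as percent of total VASP band signal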;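 on all read-outs here: T. brucei cells expressing human VASP as heterologous PKA substrate, compound exposure at 37 °C, western blot of phospho (50 kDa) versus unphosphorylated (46 kDa) VASP band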
Sequence of T. brucei PKA (Q38DS1 entry or part of it): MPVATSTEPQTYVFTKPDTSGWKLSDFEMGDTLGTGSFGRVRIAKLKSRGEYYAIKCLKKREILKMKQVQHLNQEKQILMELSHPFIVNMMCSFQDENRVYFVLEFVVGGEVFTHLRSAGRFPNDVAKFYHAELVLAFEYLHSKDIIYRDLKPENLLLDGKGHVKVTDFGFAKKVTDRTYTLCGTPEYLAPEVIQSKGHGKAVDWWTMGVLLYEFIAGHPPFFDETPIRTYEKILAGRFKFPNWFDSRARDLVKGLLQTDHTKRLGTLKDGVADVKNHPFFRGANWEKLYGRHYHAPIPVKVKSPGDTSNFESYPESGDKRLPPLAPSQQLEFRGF
Sequence of T. brucei PKA (Q38DR5 entry or part of it, further chain): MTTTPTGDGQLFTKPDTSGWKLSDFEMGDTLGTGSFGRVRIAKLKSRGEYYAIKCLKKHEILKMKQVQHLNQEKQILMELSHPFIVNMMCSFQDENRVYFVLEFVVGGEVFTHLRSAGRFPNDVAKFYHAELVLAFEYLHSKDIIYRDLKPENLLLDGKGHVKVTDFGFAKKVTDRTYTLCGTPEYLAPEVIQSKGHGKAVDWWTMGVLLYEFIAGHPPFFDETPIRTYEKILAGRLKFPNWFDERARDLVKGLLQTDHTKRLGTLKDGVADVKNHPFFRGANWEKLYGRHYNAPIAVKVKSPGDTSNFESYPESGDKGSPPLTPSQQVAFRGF
Sequence of T. brucei PKA (Q9GU80 entry or part of it): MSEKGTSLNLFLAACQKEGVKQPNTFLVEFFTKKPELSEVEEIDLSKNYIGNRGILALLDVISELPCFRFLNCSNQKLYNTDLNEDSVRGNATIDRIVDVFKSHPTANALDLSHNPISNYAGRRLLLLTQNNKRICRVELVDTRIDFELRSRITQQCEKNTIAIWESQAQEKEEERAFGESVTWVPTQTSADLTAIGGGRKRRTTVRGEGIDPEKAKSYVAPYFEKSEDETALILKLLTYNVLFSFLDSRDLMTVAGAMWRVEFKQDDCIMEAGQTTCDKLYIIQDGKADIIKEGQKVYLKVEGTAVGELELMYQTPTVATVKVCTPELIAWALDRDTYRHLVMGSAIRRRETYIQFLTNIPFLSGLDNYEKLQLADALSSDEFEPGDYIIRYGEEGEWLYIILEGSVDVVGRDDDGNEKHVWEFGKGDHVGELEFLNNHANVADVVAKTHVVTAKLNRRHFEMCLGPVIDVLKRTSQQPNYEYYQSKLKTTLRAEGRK

[2] = system: T. brucei ∆pkar/∆pkar (pkar KO) cells; experiment: microbe, parasite or virus in culture; type: cell-based, Trypanosoma brucei; conditions: read-out: EC50, Alamar blue cell viability assay, KO; individual replicate results; pkar KO cells
T. brucei BSF cells (WT) = experiment: Alamar blue cell viability assay, wild type; conditions: wild type cells;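 further: trypanosomes seeded at 5×10^3 per ml and grown 72 h with compound, then resazurin 0.5 mM added for 4 h as the viability read-out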
[3] = target: T. brucei PKAR-PKAC1 holoenzyme (Trypanosoma brucei, UniProt Q9GU80); experiment: biochemical; type: biochemical; conditions: technical replicates
Sequence of T. brucei PKAR-PKAC1 holoenzyme (Q38DR5 entry or part of it): as the sequence (Q38DR5 entry or part of it, further chain) above
Sequence of T. brucei PKAR-PKAC1 holoenzyme (Q9GU80 entry or part of it): as the sequence (Q9GU80 entry or part of it) above

[4] = read-out: EC50, Alamar blue cell viability assay, WT, individual replicate results

O=c1[nH]c(=O)c2ncn(C3OC4COP(=O)(O)OC4C3O)c2[nH]1 (stereo not drawn) [cXMP, xanthosine-3’,5’-cyclic monophosphate]
effect on basal kinase activity of immunoprecipitated holoenzyme, in words [1]: did not show any significant effects
in vitro kinase assay [CPM], PKI [1]: 870.13 CPM
in vitro kinase assay [CPM], average [1]: 6246.71 CPM
in vitro kinase assay [CPM] [1]: 4909.43 CPM and 6708.76 CPM and 7121.93 CPM

CO[C@@H]1[C@H](O)[C@@H](CO)O[C@H]1n1c(Sc2ccc(Cl)cc2)nc2c(N)ncnc21 [8-pCPT-2-′O-Me-Ado, 8-(4-Chlorophenylthio)-2'-O-methyladenosine]
effect on in vivo PKA activity (VASP phosphorylation), in words (T. brucei PKA): slight inhibitory

NC(=O)c1cn([C@@H]2O[C@H](CO)[C@@H](O)[C@H]2O)c2ncnc(N)c12 [Sangi]
EC50 [2]: 1570 nM and 868 nM and 2200 nM and 1910 nM and 1630 nM and 1940 nM and 1360 nM and 902 nM
EC50 (T. brucei BSF cells (WT); Trypanosoma brucei, read-out: EC50, Alamar blue cell viability assay, WT, individual replicate results): 697 nM
EC50 (T. brucei BSF cells (WT); [4]): 895 nM and 530 nM and 730 nM and 713 nM and 726 nM and 707 nM

CO[C@@H]1[C@H](O)[C@@H](CO)O[C@H]1n1c(Sc2ccc(Cl)cc2)nc2c(N)ncnc21 [8-pCPT-2'O-me-Ado]
% VASP phosphorylation (T. brucei PKA; 10 µM): 17.7877% and 18.0048% and 22.1674%
% VASP phosphorylation (T. brucei PKA; 20 µM): 16.9524% and 18.6949% and 22.9783%
% VASP phosphorylation (T. brucei PKA; 50 µM): 17.4825% and 18.9639% and 23.6777%
% VASP phosphorylation (T. brucei PKA; 100 µM): 18.5972% and 20.7972% and 25.3942%
% VASP phosphorylation (T. brucei PKA; 250 µM): 20.7922% and 23.6499% and 24.007%

Nc1ncnc2c1c(Br)cn2[C@@H]1O[C@H](CO)[C@@H](O)[C@H]1O [5BrTu]
EC50 [2]: 680 nM and 1190 nM and 1260 nM and 1090 nM and 619 nM and 797 nM and 1170 nM
EC50 (T. brucei BSF cells (WT); [4]): 615 nM and 1550 nM and 1120 nM and 583 nM and 1080 nM and 749 nM and 605 nM and 692 nM

OCCN(CCO)c1nc(N2CCCCC2)c2nc(N(CCO)CCO)nc(N3CCCCC3)c2n1 [Dipyridamol]
In vitro kinase assay ([3]; 1 µM): 0.38 U/ml and 0.36 U/ml
In vitro kinase assay ([3]; 100 µM): 0.31 U/ml and 0.36 U/ml
In vitro kinase assay ([3]; 1 mM): 0.38 U/ml and 0.41 U/ml

CC(=O)OCOP1(=O)OC[C@H]2O[C@@H](n3cnc4c(N)ncnc43)[C@H](O)[C@@H]2O1 (stereo partly drawn) [cAMP-AM, Adenosine-3',5'-monophosphate, acetoxymethyl ester]
% VASP phosphorylation (T. brucei PKA; 10 µM): 36.276% and 37.2% and 34.8195%
% VASP phosphorylation (T. brucei PKA; 20 µM): 33.4307% and 32.7356% and 35.3637%
% VASP phosphorylation (T. brucei PKA; 50 µM): 35.9017% and 33.7363% and 34.7458%
% VASP phosphorylation (T. brucei PKA; 100 µM): 35.4076% and 39.0007% and 33.2483%
% VASP phosphorylation (T. brucei PKA; 200 µM): 44.3984% and 35.5186% and 38.5924%
effect on in vivo PKA activity (VASP phosphorylation), in words (T. brucei PKA): No PKA activation

myr-PKI(14–22): myristoylated membrane-permeable peptide inhibitor of PKA (Myristoyl-SGRTGRRNA; UniProt P61925 14-22, looked up, fragment)
VASP phosphorylation upon treatment with inhibitor alone (T. brucei PKA; depending on the inhibitor batch): 3-10%
effect on in vivo PKA activity (VASP phosphorylation), in words (T. brucei PKA): reduced the measured activity to background

CO[C@@H]1[C@@H]2OP(=O)(O)OC[C@H]2O[C@H]1n1c(Sc2ccc(Cl)cc2)nc2c(N)ncnc21 [8-pCPT-2′-O-Me-cAMP, 8-(4-Chlorophenylthio)-2'-O-methyladenosine-3',5'-cyclic monophosphate]
effect on in vivo PKA activity (VASP phosphorylation), in words (T. brucei PKA): No PKA activation

Nc1nc2c(nc(Sc3ccc(Cl)cc3)n2[C@@H]2O[C@H](CO)[C@@H](O)[C@H]2O)c(=O)[nH]1 [8-pCPT-Guo, 8-(4-Chlorophenylthio)guanosine]
effect on in vivo PKA activity (VASP phosphorylation), in words (T. brucei PKA): no effect

CO[C@@H]1[C@@H]2OP(=O)(O)OC[C@H]2O[C@H]1n1c(Sc2ccc(Cl)cc2)nc2c(N)ncnc21 [8-pCPT-2'O-me-cAMP]
% VASP phosphorylation (T. brucei PKA; 10 µM): 41.2113% and 39.9561% and 36.9456%
% VASP phosphorylation (T. brucei PKA; 20 µM): 34.7976% and 43.6436% and 30.9578%
% VASP phosphorylation (T. brucei PKA; 50 µM): 31.7213% and 39.4904% and 29.8481%
% VASP phosphorylation (T. brucei PKA; 100 µM): 33.7045% and 41.4368% and 33.2969%
% VASP phosphorylation (T. brucei PKA; 250 µM): 30.1497% and 39.413% and 35.4525%

O=c1ccn([C@@H]2O[C@@H]3COP(=O)(O)O[C@H]3[C@H]2O)c(=O)[nH]1 [cUMP, uridine -3’,5’-cyclic monophosphate]
effect on basal kinase activity of immunoprecipitated holoenzyme, in words [1]: did not show any significant effects
in vitro kinase assay [CPM], PKI [1]: 572.53 CPM
in vitro kinase assay [CPM], average [1]: 5670.69 CPM
in vitro kinase assay [CPM] [1]: 4751.21 CPM and 5966.27 CPM and 6294.58 CPM

CC(=O)OCOP1(=O)OC[C@H]2O[C@@H](n3cnc4c(=O)[nH]c(N)nc43)[C@H](O)[C@@H]2O1 (stereo partly drawn) [cGMP-AM, Guanosine-3',5'-cyclic monophosphate, acetoxymethyl ester]
% VASP phosphorylation (T. brucei PKA; 10 µM): 34.8925% and 34.7802% and 32.2694%
% VASP phosphorylation (T. brucei PKA; 20 µM): 44.672% and 38.9969% and 29.3979%
% VASP phosphorylation (T. brucei PKA; 50 µM): 40.2424% and 33.9184% and 40.637%
% VASP phosphorylation (T. brucei PKA; 100 µM): 34.6686% and 36.9156% and 43.827%
% VASP phosphorylation (T. brucei PKA; 200 µM): 34.2202% and 37.453% and 36.5899%

Source: article PMC6440977, “Nucleoside analogue activators of cyclic AMP-independent protein kinase A of Trypanosoma” (Nature Communications, 2019)
